Tested on: transcription factor AP-1
Assay: AP-1-driven luciferase reporter gene assay in transfected Jurkat T cells (Jurkat/AP-1rep)
Assay type: cell-based
Conditions: Jurkat/AP-1rep cells stimulated 5.5 h at 37° C. with phorbol myristate acetate and ionomycin; FIG. 1
Experimental: The compounds of formula (I) were assayed for AP-1 enhancement. The compounds of this invention were tested in assays for the modulation of stimulated activity of an AP-1-driven reporter gene in the Jurkat T cell line. The activation of this reporter gene results in luciferase production and the amounts of produced luciferase parallels the level of AP-1 activity. A high level of AP-1 activity is pivotal to e.g. high production of IL-2.
Cells from the Jurkat T cell line were transfected with an AP-1-driven luciferase gene reporter construct (Parra et al., 1997) together with a selection gene vector. Selected clones from the resulting stable AP-1 reporter gene transfectants were used in the assays for AP-1 transcription factor activity. These transfected Jurkat cells (Jurkat/AP-1rep) were grown in RPMI 1640 supplemented with glutamine, hepes, sodium pyruvate, gentamicin, 10% FCS and G418. To evaluate distinct compounds for their capacity to enhance the AP-1 activity, Jurkat/AP-1rep cells were stimulated for 5.5 h in the temperature of 37° C. with phorbol myristate acetate and ionomycin in the absence and presence of test compounds. The 96 well plates containing the cell cultures were then put on ice until harvested. […] AP-1 activity was measured as luminiscence produced by luciferase substrate, which was added to the wells in conjunction with measurement.

CCN(CC)C(C)CNC(=O)c1ccc(NC(=O)C(C)C)cc1OC (stereo not shown) [Compound A, N-[(2-Diethylamino)propyl]-4-isobutyrylamino-2-methoxy-benzamide]
enhancement of the AP-1 driven reporter gene activity (luciferase luminescence): enhance the activity of the AP-1 driven reporter in a dose dependent fashion down to μM concentrations
